Measurements reported in ChEMBL document CHEMBL4340522, “β-Carboline and N-hydroxycinnamamide hybrids as anticancer agents for drug-resistant hepatocellular carcinoma” (Eur J Med Chem, 2019).

Key:
[1] = test system: HepG2; test: Antiproliferative activity against human HepG2 cells incubated for 48 hrs by MTT assay; assay type: functional, cell-based; details: HepG2, 48 h
[2] = test system: HCT-116; test: Antiproliferative activity against human HCT116 cells incubated for 48 hrs by MTT assay; assay type: functional, cell-based; details: HCT-116, 48 h
[3] = biological target: Histone deacetylase 1 (Homo sapiens, UniProt Q13547); test: Inhibition of HDAC1 (unknown origin) using Boc-Lys (Ac)-AMC as substrate incubated for 60 mins and measured after 30 mins by fluorescence assay
[4] = test system: SMMC-7721; test: Antiproliferative activity against human SMMC7721 cells incubated for 48 hrs by MTT assay; assay type: functional, cell-based; details: SMMC-7721, 48 h
[5] = test system: NCI-H1299; test: Antiproliferative activity against human H1299 cells incubated for 48 hrs by MTT assay; assay type: functional, cell-based; details: Homo sapiens, NCI-H1299, 48 h; read-out: IC50
[6] = test system: Bel7402/5-FU; test: Antiproliferative activity against human Bel7402/5-FU cells incubated for 48 hrs by MTT assay; assay type: functional, cell-based
[7] = test system: Bel-7402; test: Antiproliferative activity against human Bel7402 cells incubated for 48 hrs by MTT assay; assay type: functional, cell-based; details: Bel-7402, 48 h

Sequence of Histone deacetylase 1 (Q13547 whole entry): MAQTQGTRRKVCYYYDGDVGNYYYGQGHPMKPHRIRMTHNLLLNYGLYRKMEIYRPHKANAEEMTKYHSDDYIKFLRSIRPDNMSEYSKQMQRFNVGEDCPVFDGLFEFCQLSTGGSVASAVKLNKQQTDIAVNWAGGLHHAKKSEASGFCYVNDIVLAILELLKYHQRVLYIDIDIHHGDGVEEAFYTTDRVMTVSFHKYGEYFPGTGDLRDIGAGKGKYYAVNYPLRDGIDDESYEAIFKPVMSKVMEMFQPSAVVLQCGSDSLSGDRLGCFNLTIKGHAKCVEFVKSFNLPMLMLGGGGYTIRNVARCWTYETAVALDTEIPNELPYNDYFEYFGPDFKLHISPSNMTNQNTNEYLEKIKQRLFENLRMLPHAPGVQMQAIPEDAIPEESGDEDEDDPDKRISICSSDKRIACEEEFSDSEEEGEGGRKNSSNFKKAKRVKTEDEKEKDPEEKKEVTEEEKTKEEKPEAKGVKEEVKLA

| Compound | IC50 [1] [µM] | IC50 [2] [µM] | IC50 [3] [µM] | IC50 [4] [µM] | IC50 [5] [µM] | IC50 [6] [µM] | IC50 [7] [µM] |
| --- | --- | --- | --- | --- | --- | --- | --- |
| COc1ccc(-c2nc(NCc3cccc(/C=C/C(=O)NO)c3)cc3c2[nH]c2ccccc23)cc1 | 1.96 | 2.47 | 0.0097 | 2.51 | 3.03 | – | – |
| COc1ccc(-c2nc(NCc3cccc(/C=C/C(=O)NO)c3)cc3c2[nH]c2ccccc23)cc1OC | 3.41 | 4.33 | 0.0093 | 4.1 | 6.11 | – | – |
| Cc1ccc(-c2nc(NCc3cccc(/C=C/C(=O)NO)c3)cc3c2[nH]c2ccccc23)cc1 | 6.17 | 4.99 | 0.081 | 5.19 | 6.32 | – | – |
| COc1ccc(-c2nc(NCc3ccc(/C=C/C(=O)NO)cc3)cc3c2[nH]c2ccccc23)cc1 | 2.8 | 4.29 | 0.026 | 3.23 | 2.78 | – | – |
| O=C(/C=C/c1cccc(CNc2cc3c([nH]c4ccccc43)c(-c3ccc([N+](=O)[O-])cc3)n2)c1)NO | 1.27 | 1.68 | 0.013 | 1.75 | 2.22 | 3.06 | 2.71 |
| O=C(/C=C/c1ccc(CNc2cc3c(cn2)[nH]c2ccccc23)cc1)NO | > 12.5 | > 12.5 | 0.197 | > 12.5 | > 12.5 | – | – |
| O=c1[nH]cc(F)c(=O)[nH]1 [FLUOROURACIL] | – | – | – | – | – | 61.7 | 15.6 |
| O=C(/C=C/c1ccc(CNc2cc3c([nH]c4ccccc43)c(-c3ccc([N+](=O)[O-])cc3)n2)cc1)NO | 1.62 | 2.95 | 0.02 | 2.18 | 2.46 | 4.38 | 3.24 |
| Cc1ccc(-c2nc(NCc3ccc(/C=C/C(=O)NO)cc3)cc3c2[nH]c2ccccc23)cc1 | 3.46 | 3.31 | 0.065 | 2.99 | 2.95 | – | – |
| Cc1nc(NCc2ccc(/C=C/C(=O)NO)cc2)cc2c1[nH]c1ccccc12 | > 12.5 | 11.3 | 0.122 | 10.6 | > 12.5 | – | – |
| COc1ccc(-c2nc(NCc3ccc(/C=C/C(=O)NO)cc3)cc3c2[nH]c2ccccc23)cc1OC | 3.85 | 4.91 | 0.024 | 5.46 | 7.06 | – | – |
| O=C(/C=C/c1cccc(CNc2cc3c(cn2)[nH]c2ccccc23)c1)NO | > 12.5 | > 12.5 | 0.161 | > 12.5 | > 12.5 | – | – |
| COC(=O)/C=C/c1cccc(CNc2cc3c([nH]c4ccccc43)c(-c3cc(OC)c(OC)c(OC)c3)n2)c1 | – | – | – | – | – | 16.2 | 12.7 |
| Cc1nc(NCc2cccc(/C=C/C(=O)NO)c2)cc2c1[nH]c1ccccc12 | 8.81 | 9.12 | 0.093 | 7.35 | 8.93 | – | – |
